# Measurements: ChEMBL document CHEMBL4699440, “Comprehensive review on the anti-bacterial activity of 1,2,3-triazole hybrids” (Eur J Med Chem, 2019)
# How the values were obtained:
# KB = experiment: Cytotoxicity against human KB cells; type: cell-based; settings: Homo sapiens, KB
# Bacillus cereus [1] = experiment: Antibacterial activity against Bacillus cereus; type: functional
# Staphylococcus aureus [2] = experiment: Antibacterial activity against Staphylococcus aureus; type: functional
# Staphylococcus aureus [3] = experiment: Antibacterial activity against Staphylococcus aureus MTCC 96 incubated for 24 hrs by macrodilution tube method; type: functional
# Bacillus cereus [4] = experiment: Antibacterial activity against Bacillus cereus MTCC 430 incubated for 24 hrs by macrodilution tube method; type: functional
# Talaromyces marneffei = experiment: Antifungal activity against Penicillium marneffei incubated for 3 to 4 days by serial plate dilution method; type: functional; settings: time day 3-4
# Aspergillus fumigatus = experiment: Antifungal activity against Aspergillus fumigatus NCIM 902 incubated for 3 to 4 days by serial plate dilution method; type: functional; settings: time day 3-4
# Pseudomonas aeruginosa = experiment: Antibacterial activity against Pseudomonas aeruginosa ATCC 27853 incubated for 16 to 18 hrs by serial plate dilution method; type: functional; settings: time hrs 16-18
# Aspergillus flavus = experiment: Antifungal activity against Aspergillus flavus NCIM 524 incubated for 3 to 4 days by serial plate dilution method; type: functional; settings: time day 3-4
# Escherichia coli = experiment: Antibacterial activity against Escherichia coli ATCC 25922 incubated for 16 to 18 hrs by serial plate dilution method; type: functional; settings: time hrs 16-18
# Klebsiella pneumoniae = experiment: Antibacterial activity against Klebsiella pneumoniae incubated for 16 to 18 hrs by serial plate dilution method; type: functional; settings: time hrs 16-18
# Staphylococcus aureus [5] = experiment: Antibacterial activity against methicillin-resistant Staphylococcus aureus ATCC 25923 incubated for 16 to 18 hrs by serial plate dilution method; type: functional; settings: time hrs 16-18
# [6] = test system: Trichophyton mentagrophytes; experiment: Antifungal activity against Trichophyton mentagrophytes incubated for 3 to 4 days by serial plate dilution method; type: functional; settings: time day 3-4
MIC (Bacillus cereus [1]),MIC (Staphylococcus aureus [2]),MIC (Staphylococcus aureus [3]),MIC (Bacillus cereus [4]),SMILES,IC50 (KB),MIC (Talaromyces marneffei),MIC (Aspergillus fumigatus),MIC (Pseudomonas aeruginosa),MIC (Aspergillus flavus),MIC (Escherichia coli),MIC (Klebsiella pneumoniae),MIC (Staphylococcus aureus [5]),MIC [6]
1.56 µg/mL,1.56 µg/mL,,,CC(C)C[C@H](NC(=O)CNC(=O)C(C)(C)NC(=O)[C@@H](NC(=O)C(C)(C)NC(=O)[C@H](CCC(N)=O)NC(=O)[C@H](C)NC(=O)C(C)(C)NC(=O)[C@H](C)NC(=O)C(C)(C)NC(=O)[C@@H]1CCN(C(=O)C(C)(C)n2cc(-c3ccc(F)cc3F)nn2)C1)C(C)C)C(=O)NC(C)(C)C(=O)N1CCC[C@@H]1C(=O)N[C@H](C(=O)NC(C)(C)C(=O)NC(C)(C)C(=O)N[C@@H](CCC(N)=O)C(=O)N[C@@H](CCC(N)=O)C(=O)N[C@H](CO)Cc1ccccc1)C(C)C,2.9 µg/mL,,,,,,,,
1.56 µg/mL,1.56 µg/mL,,,COc1ccc2ccc(-c3cn(C(C)(C)C(=O)N4CC[C@@H](C(=O)NC(C)(C)C(=O)N[C@@H](C)C(=O)NC(C)(C)C(=O)N[C@@H](C)C(=O)N[C@@H](CCC(N)=O)C(=O)NC(C)(C)C(=O)N[C@H](C(=O)NC(C)(C)C(=O)NCC(=O)N[C@@H](CC(C)C)C(=O)NC(C)(C)C(=O)N5CCC[C@@H]5C(=O)N[C@H](C(=O)NC(C)(C)C(=O)NC(C)(C)C(=O)N[C@@H](CCC(N)=O)C(=O)N[C@@H](CCC(N)=O)C(=O)N[C@H](CO)Cc5ccccc5)C(C)C)C(C)C)C4)nn3)cc2c1,2.9 µg/mL,,,,,,,,
1.56 µg/mL,1.56 µg/mL,,,CC(C)C[C@H](NC(=O)CNC(=O)C(C)(C)NC(=O)[C@@H](NC(=O)C(C)(C)NC(=O)[C@H](CCC(N)=O)NC(=O)[C@H](C)NC(=O)C(C)(C)NC(=O)[C@H](C)NC(=O)C(C)(C)NC(=O)[C@@H]1CCN(C(=O)C(C)(C)n2cc(-c3cc(F)cc(F)c3)nn2)C1)C(C)C)C(=O)NC(C)(C)C(=O)N1CCC[C@@H]1C(=O)N[C@H](C(=O)NC(C)(C)C(=O)NC(C)(C)C(=O)N[C@@H](CCC(N)=O)C(=O)N[C@@H](CCC(N)=O)C(=O)N[C@H](CO)Cc1ccccc1)C(C)C,2.9 µg/mL,,,,,,,,
,,16 µg/mL,16 µg/mL,CC1(C)CC(=O)C2=C(C1)Oc1cc3ccc(OCc4cn(-c5ccnc6cc(Cl)ccc56)nn4)cc3cc1C2c1ccccc1 (centres undefined),,,,,,,,,
1.56 µg/mL,1.56 µg/mL,,,CC(C)C[C@H](NC(=O)CNC(=O)C(C)(C)NC(=O)[C@@H](NC(=O)C(C)(C)NC(=O)[C@H](CCC(N)=O)NC(=O)[C@H](C)NC(=O)C(C)(C)NC(=O)[C@H](C)NC(=O)C(C)(C)NC(=O)[C@@H]1CCN(C(=O)C(C)(C)n2cc(-c3ccc4ccc5cccc6ccc3c4c56)nn2)C1)C(C)C)C(=O)NC(C)(C)C(=O)N1CCC[C@@H]1C(=O)N[C@H](C(=O)NC(C)(C)C(=O)NC(C)(C)C(=O)N[C@@H](CCC(N)=O)C(=O)N[C@@H](CCC(N)=O)C(=O)N[C@H](CO)Cc1ccccc1)C(C)C,2.9 µg/mL,,,,,,,,
1.56 µg/mL,1.56 µg/mL,,,CC(C)C[C@H](NC(=O)CNC(=O)C(C)(C)NC(=O)[C@@H](NC(=O)C(C)(C)NC(=O)[C@H](CCC(N)=O)NC(=O)[C@H](C)NC(=O)C(C)(C)NC(=O)[C@H](C)NC(=O)C(C)(C)NC(=O)[C@@H]1CCN(C(=O)C(C)(C)n2cc(-c3ccc(-c4ccccc4)cc3)nn2)C1)C(C)C)C(=O)NC(C)(C)C(=O)N1CCC[C@@H]1C(=O)N[C@H](C(=O)NC(C)(C)C(=O)NC(C)(C)C(=O)N[C@@H](CCC(N)=O)C(=O)N[C@@H](CCC(N)=O)C(=O)N[C@H](CO)Cc1ccccc1)C(C)C,2.9 µg/mL,,,,,,,,

# The next lines start with the molecule.
SMILES,MIC (Bacillus cereus [1]),MIC (Staphylococcus aureus [2]),MIC (Staphylococcus aureus [3]),MIC (Bacillus cereus [4]),IC50 (KB),MIC (Talaromyces marneffei),MIC (Aspergillus fumigatus),MIC (Pseudomonas aeruginosa),MIC (Aspergillus flavus),MIC (Escherichia coli),MIC (Klebsiella pneumoniae),MIC (Staphylococcus aureus [5]),MIC [6]
O=C1CCCC2=C1C(c1ccc(Br)cc1)c1cc3cc(OCc4cn(-c5ccnc6cc(Cl)ccc56)nn4)ccc3cc1O2 (centres undefined),,,16 µg/mL,16 µg/mL,,,,,,,,,
Cc1ccsc1/C=N/NC(=O)c1nnn(-c2cc(C(F)(F)F)nc3c(C(F)(F)F)cccc23)c1C,,,,,,6.25 µg/mL,6.25 µg/mL,6.25 µg/mL,6.25 µg/mL,6.25 µg/mL,6.25 µg/mL,6.25 µg/mL,6.25 µg/mL
Cc1c(C(=O)N/N=C/c2ccc([N+](=O)[O-])cc2)nnn1-c1cc(C(F)(F)F)nc2c(C(F)(F)F)cccc12,,,,,,6.25 µg/mL,6.25 µg/mL,6.25 µg/mL,6.25 µg/mL,6.25 µg/mL,6.25 µg/mL,6.25 µg/mL,6.25 µg/mL
CC1(C)CC(=O)C2=C(C1)Oc1cc3ccc(OCc4cn(-c5ccnc6cc(Cl)ccc56)nn4)cc3cc1C2c1ccc([N+](=O)[O-])cc1 (centres undefined),,,16 µg/mL,16 µg/mL,,,,,,,,,
Cc1c(C(=O)N/N=C/c2ccccc2)nnn1-c1cc(C(F)(F)F)nc2c(C(F)(F)F)cccc12,,,,,,6.25 µg/mL,6.25 µg/mL,6.25 µg/mL,6.25 µg/mL,6.25 µg/mL,6.25 µg/mL,6.25 µg/mL,6.25 µg/mL
COc1ccc(/C=N/NC(=O)c2nnn(-c3cc(C(F)(F)F)nc4c(C(F)(F)F)cccc34)c2C)c(OC)c1OC,,,,,,6.25 µg/mL,6.25 µg/mL,6.25 µg/mL,6.25 µg/mL,6.25 µg/mL,6.25 µg/mL,6.25 µg/mL,6.25 µg/mL
Cc1c(C(=O)N/N=C/c2ccccc2O)nnn1-c1cc(C(F)(F)F)nc2c(C(F)(F)F)cccc12,,,,,,6.25 µg/mL,6.25 µg/mL,6.25 µg/mL,6.25 µg/mL,6.25 µg/mL,6.25 µg/mL,6.25 µg/mL,6.25 µg/mL
Cc1c(C(=O)N/N=C/c2ccc(-c3ccccc3)cc2)nnn1-c1cc(C(F)(F)F)nc2c(C(F)(F)F)cccc12,,,,,,6.25 µg/mL,6.25 µg/mL,6.25 µg/mL,6.25 µg/mL,6.25 µg/mL,6.25 µg/mL,6.25 µg/mL,6.25 µg/mL
CC1(C)CC(=O)C2=C(C1)Oc1cc3ccc(OCc4cn(-c5ccnc6cc(Cl)ccc56)nn4)cc3cc1C2c1ccc(Cl)cc1 (centres undefined),,,16 µg/mL,16 µg/mL,,,,,,,,,
COc1ccc(/C=N/NC(=O)c2nnn(-c3cc(C(F)(F)F)nc4c(C(F)(F)F)cccc34)c2C)c([N+](=O)[O-])c1OC,,,,,,6.25 µg/mL,6.25 µg/mL,6.25 µg/mL,6.25 µg/mL,6.25 µg/mL,6.25 µg/mL,6.25 µg/mL,6.25 µg/mL
